{
  "source": "paper PMC2990605",
  "about": "(British Journal of Cancer, 2010)",
  "assay": "Adverse events (CTCAEv3.0), worst grade per patient regardless of relation, and laboratory parameters",
  "format": "in vivo",
  "conditions": "human, in vivo",
  "method": "Toxicity was evaluated according to common toxicity criteria for adverse events (CTCAEv3.0). The MTD was defined as the dose level(s) at which at least two out of six patients developed DLT.\nToxicity assessment, haematology and clinical biochemistry were performed at baseline and weekly during the study. Physical and ECOG performance status were recorded at baseline and before the next cycle.",
  "data": [
    {"smiles": "CC(C)C[C@@H](C(=O)N[C@H](C(=O)OC1CCCC1)c1ccccc1)[C@H](O)C(=O)NO", "note": "[tosedostat]", "values": [
      {"measurement": "Cough, CTCAE grade 3, patients", "value": 0},
      {"measurement": "Cough, CTCAE grade 4, patients", "value": 0},
      {"measurement": "Cough, patients with events, %", "value": 41, "unit": "%"},
      {"measurement": "Cystitis, CTCAE grade 1, patients", "value": 0},
      {"measurement": "Cystitis, CTCAE grade 2, patients", "value": 1},
      {"measurement": "Cystitis, CTCAE grade 3, patients", "value": 1},
      {"measurement": "Cystitis, CTCAE grade 4, patients", "value": 0},
      {"measurement": "Cystitis, patients with events, %", "value": 9, "unit": "%"},
      {"measurement": "Dehydration, CTCAE grade 1, patients", "value": 0},
      {"measurement": "Dehydration, CTCAE grade 2, patients", "value": 1},
      {"measurement": "Dehydration, CTCAE grade 3, patients", "value": 1},
      {"measurement": "Dehydration, CTCAE grade 4, patients", "value": 0},
      {"measurement": "Dehydration, patients with events, %", "value": 9, "unit": "%"},
      {"measurement": "Diabetes mellitus, CTCAE grade 1, patients", "value": 0},
      {"measurement": "Diabetes mellitus, CTCAE grade 2, patients", "value": 0},
      {"measurement": "Diabetes mellitus, CTCAE grade 3, patients", "value": 1},
      {"measurement": "Diabetes mellitus, CTCAE grade 4, patients", "value": 0},
      {"measurement": "Diabetes mellitus, patients with events, %", "value": 5, "unit": "%"},
      {"measurement": "Diarrhoea, CTCAE grade 1, patients", "value": 5},
      {"measurement": "Diarrhoea, CTCAE grade 2, patients", "value": 3},
      {"measurement": "Diarrhoea, CTCAE grade 3, patients", "value": 0},
      {"measurement": "Diarrhoea, CTCAE grade 4, patients", "value": 0},
      {"measurement": "Diarrhoea, patients with events, %", "value": 36, "unit": "%"},
      {"measurement": "Dizziness, CTCAE grade 1, patients", "value": 8},
      {"measurement": "Dizziness, CTCAE grade 2, patients", "value": 1},
      {"measurement": "Dizziness, CTCAE grade 3, patients", "value": 1},
      {"measurement": "Dizziness, CTCAE grade 4, patients", "value": 0},
      {"measurement": "Dizziness, patients with events, %", "value": 45, "unit": "%"},
      {"measurement": "Drug hypersensitivity, CTCAE grade 1, patients", "value": 3},
      {"measurement": "Drug hypersensitivity, CTCAE grade 2, patients", "value": 1},
      {"measurement": "Drug hypersensitivity, CTCAE grade 3, patients", "value": 7},
      {"measurement": "Drug hypersensitivity, CTCAE grade 4, patients", "value": 0},
      {"measurement": "Drug hypersensitivity, patients with events, %", "value": 50, "unit": "%"},
      {"measurement": "Dry skin, CTCAE grade 1, patients", "value": 3},
      {"measurement": "Dry skin, CTCAE grade 2, patients", "value": 0},
      {"measurement": "Dry skin, CTCAE grade 3, patients", "value": 1},
      {"measurement": "Dry skin, CTCAE grade 4, patients", "value": 0},
      {"measurement": "Dry skin, patients with events, %", "value": 18, "unit": "%"},
      {"measurement": "Dyspnoea, CTCAE grade 1, patients", "value": 6},
      {"measurement": "Dyspnoea, CTCAE grade 4, patients", "value": 0},
      {"measurement": "Eosinophilic myocarditis, CTCAE grade 1, patients", "value": 0},
      {"measurement": "Eosinophilic myocarditis, CTCAE grade 2, patients", "value": 0},
      {"measurement": "Eosinophilic myocarditis, CTCAE grade 3, patients", "value": 0},
      {"measurement": "Eosinophilic myocarditis, CTCAE grade 4, patients", "value": 0},
      {"measurement": "Eosinophilic myocarditis, patients with events, %", "value": 5, "unit": "%"},
      {"measurement": "Erythema, CTCAE grade 1, patients", "value": 1},
      {"measurement": "Erythema, CTCAE grade 2, patients", "value": 0},
      {"measurement": "Erythema, CTCAE grade 3, patients", "value": 1},
      {"measurement": "Erythema, CTCAE grade 4, patients", "value": 0},
      {"measurement": "Erythema, patients with events, %", "value": 9, "unit": "%"},
      {"measurement": "Fatigue, CTCAE grade 1, patients", "value": 5},
      {"measurement": "Fatigue, CTCAE grade 2, patients", "value": 10},
      {"measurement": "Fatigue, CTCAE grade 3, patients", "value": 6},
      {"measurement": "Fatigue, CTCAE grade 4, patients", "value": 0},
      {"measurement": "Fatigue, patients with events, %", "value": 95, "unit": "%"},
      {"measurement": "Gastric dilatation, CTCAE grade 1, patients", "value": 0},
      {"measurement": "Gastric dilatation, CTCAE grade 2, patients", "value": 0},
      {"measurement": "Gastric dilatation, CTCAE grade 3, patients", "value": 1},
      {"measurement": "Gastric dilatation, CTCAE grade 4, patients", "value": 0},
      {"measurement": "Gastric dilatation, patients with events, %", "value": 5, "unit": "%"},
      {"measurement": "General physical health deterioration, CTCAE grade 1, patients", "value": 0},
      {"measurement": "General physical health deterioration, CTCAE grade 2, patients", "value": 0},
      {"measurement": "General physical health deterioration, CTCAE grade 3, patients", "value": 1},
      {"measurement": "General physical health deterioration, CTCAE grade 4, patients", "value": 0},
      {"measurement": "General physical health deterioration, patients with events, %", "value": 5, "unit": "%"},
      {"measurement": "Hypercalcaemia, CTCAE grade 1, patients", "value": 0},
      {"measurement": "Hypercalcaemia, CTCAE grade 2, patients", "value": 0},
      {"measurement": "Hypercalcaemia, CTCAE grade 3, patients", "value": 1},
      {"measurement": "Hypercalcaemia, CTCAE grade 4, patients", "value": 0},
      {"measurement": "Hypercalcaemia, patients with events, %", "value": 5, "unit": "%"},
      {"measurement": "Hyperglycaemia, CTCAE grade 1, patients", "value": 0},
      {"measurement": "Hyperglycaemia, CTCAE grade 2, patients", "value": 1},
      {"measurement": "Hyperglycaemia, CTCAE grade 3, patients", "value": 2},
      {"measurement": "Hyperglycaemia, CTCAE grade 4, patients", "value": 0},
      {"measurement": "Hyperglycaemia, patients with events, %", "value": 14, "unit": "%"},
      {"measurement": "Hyperhidrosis, CTCAE grade 1, patients", "value": 2},
      {"measurement": "Hyperhidrosis, CTCAE grade 2, patients", "value": 0},
      {"measurement": "Hyperhidrosis, CTCAE grade 3, patients", "value": 1},
      {"measurement": "Hyperhidrosis, CTCAE grade 4, patients", "value": 0},
      {"measurement": "Hyperhidrosis, patients with events, %", "value": 14, "unit": "%"},
      {"measurement": "Leukopenia, CTCAE grade 1, patients", "value": 0},
      {"measurement": "Leukopenia, CTCAE grade 2, patients", "value": 1},
      {"measurement": "Leukopenia, CTCAE grade 3, patients", "value": 3},
      {"measurement": "Leukopenia, CTCAE grade 4, patients", "value": 0},
      {"measurement": "Leukopenia, patients with events, %", "value": 18, "unit": "%"},
      {"measurement": "Malaise, CTCAE grade 1, patients", "value": 1},
      {"measurement": "Malaise, CTCAE grade 2, patients", "value": 1},
      {"measurement": "Malaise, CTCAE grade 3, patients", "value": 1},
      {"measurement": "Malaise, CTCAE grade 4, patients", "value": 0},
      {"measurement": "Malaise, patients with events, %", "value": 14, "unit": "%"},
      {"measurement": "Mucosal inflammation, CTCAE grade 1, patients", "value": 4},
      {"measurement": "Mucosal inflammation, CTCAE grade 2, patients", "value": 1},
      {"measurement": "Mucosal inflammation, CTCAE grade 3, patients", "value": 0},
      {"measurement": "Mucosal inflammation, CTCAE grade 4, patients", "value": 0},
      {"measurement": "Mucosal inflammation, patients with events, %", "value": 23, "unit": "%"},
      {"measurement": "Myalgia, CTCAE grade 1, patients", "value": 8},
      {"measurement": "Myalgia, CTCAE grade 2, patients", "value": 1},
      {"measurement": "Myalgia, CTCAE grade 3, patients", "value": 1},
      {"measurement": "Myalgia, CTCAE grade 4, patients", "value": 0},
      {"measurement": "Myalgia, patients with events, %", "value": 45, "unit": "%"},
      {"measurement": "Nasopharyngitis, CTCAE grade 1, patients", "value": 6},
      {"measurement": "Nasopharyngitis, CTCAE grade 2, patients", "value": 0},
      {"measurement": "Nasopharyngitis, CTCAE grade 3, patients", "value": 0},
      {"measurement": "Nasopharyngitis, CTCAE grade 4, patients", "value": 0},
      {"measurement": "Nasopharyngitis, patients with events, %", "value": 27, "unit": "%"},
      {"measurement": "Nausea, CTCAE grade 1, patients", "value": 9},
      {"measurement": "Nausea, CTCAE grade 2, patients", "value": 1},
      {"measurement": "Nausea, CTCAE grade 3, patients", "value": 0},
      {"measurement": "Nausea, CTCAE grade 4, patients", "value": 0},
      {"measurement": "Nausea, patients with events, %", "value": 45, "unit": "%"},
      {"measurement": "Neoplasms benign, malignant and unspecified (including cysts and polyps), patients with events, %", "value": 14, "unit": "%"},
      {"measurement": "Nervous system disorders, patients with events, %", "value": 95, "unit": "%"},
      {"measurement": "Neutropenia, CTCAE grade 1, patients", "value": 0},
      {"measurement": "Neutropenia, CTCAE grade 2, patients", "value": 0},
      {"measurement": "Neutropenia, CTCAE grade 3, patients", "value": 2},
      {"measurement": "Neutropenia, CTCAE grade 4, patients", "value": 4},
      {"measurement": "Neutropenia, patients with events, %", "value": 27, "unit": "%"},
      {"measurement": "Oedema peripheral, CTCAE grade 1, patients", "value": 6},
      {"measurement": "Oedema peripheral, CTCAE grade 2, patients", "value": 2},
      {"measurement": "Oedema peripheral, CTCAE grade 3, patients", "value": 0},
      {"measurement": "Oedema peripheral, CTCAE grade 4, patients", "value": 0},
      {"measurement": "Oedema peripheral, patients with events, %", "value": 36, "unit": "%"},
      {"measurement": "Oedema, CTCAE grade 1, patients", "value": 4},
      {"measurement": "Oedema, CTCAE grade 2, patients", "value": 0},
      {"measurement": "Oedema, CTCAE grade 3, patients", "value": 1},
      {"measurement": "Oedema, CTCAE grade 4, patients", "value": 0},
      {"measurement": "Oedema, patients with events, %", "value": 23, "unit": "%"},
      {"measurement": "Peripheral sensory neuropathy, CTCAE grade 1, patients", "value": 6},
      {"measurement": "Peripheral sensory neuropathy, CTCAE grade 2, patients", "value": 4},
      {"measurement": "Peripheral sensory neuropathy, CTCAE grade 3, patients", "value": 3},
      {"measurement": "Peripheral sensory neuropathy, CTCAE grade 4, patients", "value": 0},
      {"measurement": "Peripheral sensory neuropathy, patients with events, %", "value": 59, "unit": "%"},
      {"measurement": "Pollakiuria, CTCAE grade 1, patients", "value": 0},
      {"measurement": "Pollakiuria, CTCAE grade 2, patients", "value": 0},
      {"measurement": "Pollakiuria, CTCAE grade 3, patients", "value": 1},
      {"measurement": "Pollakiuria, CTCAE grade 4, patients", "value": 0}
    ]}
  ]
}
